Measurements taken from patent US9409952B2, “Peptide-compound cyclization method” (Chugai Seiyaku Kabushiki Kaisha, priority 2011, dated 2016).
Where two headings read alike, the source gives them in different places. Starred links: 1 amine or outer side, 2 acyl side, 3 side chain; linkers in the order of their positions; H or OH if unused. Positions of bridges follow the written chain, without caps; N, C: chain ends. Non-standard residues stand in square brackets, D forms with d. Residues, ends and D or L forms follow the SMILES beside them. ξ: configuration not given here. *: point of attachment. NMeF = CN[C@@H](Cc1ccccc1)C(=O)O; NMeβAla = CN(CCC(=O)[*:2])[*:1]; NMeL = CN[C@@H](CC(C)C)C(=O)O; ξNMeF = CNC(Cc1ccccc1)C(=O)O; NMeV = CN[C@H](C(=O)O)C(C)C; NMeA = CN[C@@H](C)C(=O)O; Piperidide = C1CCN(*)CC1; dNMeA = CN[C@H](C)C(=O)O; Sar = CNCC(=O)O; tBu = CC(C)(C)*

What was measured:
[1] = Metabolic stability in human hepatic microsome; assay type: in vitro ADME; settings: microsomes
[2] = PAMPA (parallel artificial membrane permeability assay); assay type: in vitro ADME; settings: PAMPA
How it was run: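 Artificial membrane was 10% (w/v) egg lecithin plus 0.5% (w/v) cholesterol in dodecane on a PVDF filter. A 10 mM DMSO stock was added at 0.5% (v/v) to donor buffer (50 mM MOPSO, pH 6.5, 5.0% glycocholic acid). After 18 h at 37 °C, LC/MS or LC/UV gave donor and acceptor levels for Pe.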

[3] = pH 7.4, human hepatic microsome, NADPH(+), read-out: CL NADPH(+)
[4] = membrane permeation rate (Pe), 50 mM MOPSO buffer pH 6.5 with 5.0% glycocholic acid, 37° C., 18 hours, read-out: iPAMPA Pe

| Structure (SMILES) | microsomal CLint at 1 uM ([1]; human, pH 7.4, CL NADPH(+)) | Papp at 18 hours, 50 µM ([2]; pH 6.5) | microsomal CLint at 1 uM [1, 3] | Papp at 18 hours, 50 µM [2, 4] |
| --- | --- | --- | --- | --- |
| CC(C)C[C@H]1C(=O)N[C@H](C(=O)N(C)[C@@H](Cc2ccccc2)C(=O)N[C@@H](C)C(=O)N2CCCCC2)CC(=O)N(C)[C@H](C)C(=O)N(C)[C@@H](Cc2ccccc2)C(=O)N(C)[C@@H](CC(C)C)C(=O)N[C@@H]([C@@H](C)O)C(=O)N(C)[C@@H](C)C(=O)N(C)[C@@H](CC(C)C)C(=O)N[C@@H](C(C)C)C(=O)N1C [DP-313] ([dNMeA][NMeF][NMeL]T[NMeA][NMeL]V[NMeL]D[NMeF]A-Piperidide; lactam N-9) | 61 µL/min/mg | 21 ×10⁻⁶ cm/s |  |  |
| CC(C)C[C@H]1C(=O)N(C)[C@@H](Cc2ccccc2)C(=O)NCC(=O)N(C)[C@@H](Cc2ccccc2)C(=O)N(C)[C@@H](C)C(=O)N[C@@H]([C@@H](C)O)C(=O)N[C@H](C(=O)N(C)[C@@H](Cc2ccccc2)C(=O)N(C)[C@@H](Cc2ccccc2)C(=O)N[C@@H](C)C(=O)N2CCCCC2)CC(=O)N(C)CC(=O)N[C@@H](C(C)C)C(=O)N1C [DP-314] ([Sar]V[NMeL][NMeF]G[NMeF][NMeA]TD[NMeF][NMeF]A-Piperidide; lactam N-9) |  |  | 133 µL/min/mg | 49 ×10⁻⁶ cm/s |
| CC(C)C[C@H]1C(=O)N[C@@H](C(C)C)C(=O)N[C@H](C(=O)N(C)C(Cc2ccccc2)C(=O)N(C)[C@@H](Cc2ccccc2)C(=O)N[C@@H](C)C(=O)N2CCCCC2)CC(=O)N[C@H](C)C(=O)N(C)[C@@H](C)C(=O)N(C)[C@@H](Cc2ccccc2)C(=O)N(C)[C@@H](CC(C)C)C(=O)N[C@@H]([C@@H](C)O)C(=O)N(C)CC(=O)N1C (some centres unmarked) [DP-315] ([dA][NMeA][NMeF][NMeL]T[Sar][NMeL]VD[ξNMeF][NMeF]A-Piperidide; lactam N-9) | 63 µL/min/mg | 30 ×10⁻⁶ cm/s |  |  |
| CC(C)C[C@H]1C(=O)N(C)[C@@H](Cc2ccccc2)C(=O)N(C)[C@@H](C)C(=O)N[C@@H](Cc2ccccc2)C(=O)N[C@H](C(=O)N(C)[C@@H](Cc2ccccc2)C(=O)N[C@@H](C)C(=O)N2CCCCC2)CC(=O)N(C)CC(=O)N[C@@H]([C@@H](C)O)C(=O)N(C)CC(=O)N[C@@H](C(C)C)C(=O)N1C [DP-316] ([Sar]T[Sar]V[NMeL][NMeF][NMeA]FD[NMeF]A-Piperidide; lactam N-9) | 35 µL/min/mg | 12 ×10⁻⁶ cm/s |  |  |
| CC(C)C[C@H]1C(=O)N(C)[C@@H](C(C)C)C(=O)N[C@@H]([C@@H](C)O)C(=O)N(C)CC(=O)N(C)[C@@H](C)C(=O)N(C)[C@@H](C)C(=O)N[C@@H](C(C)C)C(=O)N[C@H](C(=O)N2CCCCC2)CC(=O)N(C)[C@H](C)C(=O)N(C)[C@@H](C)C(=O)N[C@@H](C)C(=O)N(C)[C@@H](Cc2ccccc2)C(=O)N1C [DP-319] ([dNMeA][NMeA]A[NMeF][NMeL][NMeV]T[Sar][NMeA][NMeA]VD-Piperidide; lactam N-12) |  |  | 12 µL/min/mg | 1 ×10⁻⁶ cm/s |
| CC[C@H](C)[C@@H]1NC(=O)[C@H]([C@@H](C)O)NC(=O)[C@H](Cc2ccccc2)NC(=O)[C@H](CC(C)C)NC(=O)[C@@H](C)NC(=O)C[C@@H](C(=O)N2CCCCC2)NC(=O)[C@H](CC(C)C)NC(=O)[C@H](CC(C)C)N(C)C(=O)[C@H](CC(C)C)NC(=O)CNC(=O)[C@H](Cc2ccccc2)NC1=O [DP-321] ([dA]LFTIFGL[NMeL]LD-Piperidide; lactam N-11) |  |  | 19 µL/min/mg | 6.2 ×10⁻⁶ cm/s |
| CC(C)C[C@H]1C(=O)N(C)[C@@H](C(C)C)C(=O)N(C)[C@@H](C)C(=O)N[C@@H](Cc2ccccc2)C(=O)N(C)[C@@H](C)C(=O)N[C@H](C(=O)N2CCCCC2)CC(=O)N(C)[C@@H](C)C(=O)N[C@@H]([C@@H](C)O)C(=O)N(C)[C@@H](C)C(=O)N[C@@H](C)C(=O)N(C)[C@@H](Cc2ccccc2)C(=O)N1C [DP-322] ([NMeA]T[NMeA]A[NMeF][NMeL][NMeV][NMeA]F[NMeA]D-Piperidide; lactam N-11) |  |  | 74 µL/min/mg | 10 ×10⁻⁶ cm/s |
| CC[C@H](C)[C@@H]1NC(=O)[C@H](CC(C)C)NC(=O)[C@H](CC(C)C)N(C)C(=O)[C@H](CC(C)C)NC(=O)[C@H](CC(C)C)NC(=O)[C@H](Cc2ccccc2)NC(=O)[C@H](CC(C)C)NC(=O)[C@H](Cc2ccccc2)NC(=O)[C@H]([C@@H](C)O)NC(=O)CCN(C)C(=O)C[C@@H](C(=O)N2CCCCC2)NC1=O [DP-323] ([NMeβAla]TFLFLL[NMeL]LID-Piperidide; lactam N-11) |  |  | 182 µL/min/mg | 7.8 ×10⁻⁶ cm/s |
| CC(C)C[C@@H]1NC(=O)CCN(C)C(=O)C[C@@H](C(=O)N2CCCCC2)NC(=O)[C@H](CC(C)C)N(C)C(=O)[C@H](CC(C)C)NC(=O)[C@H](Cc2ccccc2)NC(=O)[C@H](C)NC(=O)[C@H]([C@@H](C)O)NC(=O)[C@H](CC(C)C)NC(=O)CN(C)C(=O)[C@H](CC(C)C)NC1=O [DP-324] ([NMeβAla]LL[Sar]LTAFL[NMeL]D-Piperidide; lactam N-11) |  |  | 59 µL/min/mg | 7.7 ×10⁻⁶ cm/s |
| CC(C)C[C@H]1C(=O)N(C)[C@@H](C)C(=O)N[C@@H](C)C(=O)N[C@H](C(=O)N2CCCCC2)CC(=O)N(C)CCC(=O)N(C)[C@@H](Cc2ccccc2)C(=O)N(C)[C@@H](C)C(=O)N[C@@H]([C@@H](C)O)C(=O)N(C)[C@@H](C)C(=O)N[C@@H](Cc2ccccc2)C(=O)N(C)[C@@H](C(C)C)C(=O)N1C [DP-326] ([NMeβAla][NMeF][NMeA]T[NMeA]F[NMeV][NMeL][NMeA]AD-Piperidide; lactam N-11) |  |  | 15 µL/min/mg | 2.5 ×10⁻⁶ cm/s |
| CC[C@H](C)[C@@H]1NC(=O)[C@@H](C)N(C)C(=O)C[C@@H](C(=O)N2CCCCC2)NC(=O)[C@H](Cc2ccccc2)NC(=O)[C@H]([C@@H](C)O)NC(=O)[C@H](CC(C)C)NC(=O)[C@H](CC(C)C)NC(=O)CN(C)C(=O)[C@H](CC(C)C)NC(=O)[C@H](C)NC(=O)[C@H](CC(C)C)NC1=O [DP-327] ([dNMeA]ILAL[Sar]LLTFD-Piperidide; lactam N-11) |  |  | 70 µL/min/mg | 3.5 ×10⁻⁶ cm/s |
| CC[C@H](C)[C@@H]1NC(=O)[C@H]([C@@H](C)O)NC(=O)[C@H](CC(C)C)NC(=O)[C@H](Cc2ccccc2)NC(=O)[C@H](CC(C)C)NC(=O)[C@H](C)NC(=O)C[C@@H](C(=O)N2CCCCC2)NC(=O)[C@H](Cc2ccccc2)NC(=O)[C@H](CC(C)C)NC(=O)[C@H](Cc2ccccc2)N(C)C1=O [DP-329] (ALFLTI[NMeF]LFD-Piperidide; lactam N-10) |  |  | 66 µL/min/mg | 2.4 ×10⁻⁶ cm/s |
| CC[C@H](C)[C@@H]1NC(=O)[C@H](CC(C)C)NC(=O)[C@H](Cc2ccccc2)NC(=O)[C@H](CC(C)C)NC(=O)CN(C)C(=O)[C@H](Cc2ccccc2)NC(=O)[C@H](C)NC(=O)C[C@@H](C(=O)N2CCCCC2)NC(=O)[C@H](Cc2ccccc2)NC(=O)[C@H]([C@@H](C)O)NC1=O [DP-330] (AF[Sar]LFLITFD-Piperidide; lactam N-10) |  |  | 61 µL/min/mg | 9.9 ×10⁻⁶ cm/s |
| CC[C@H](C)[C@@H]1NC(=O)[C@H](CC(C)C)NC(=O)[C@H](C)N(C)C(=O)C[C@@H](C(=O)N2CCCCC2)NC(=O)[C@H](CC(C)C)NC(=O)[C@H](Cc2ccccc2)NC(=O)[C@H](Cc2ccccc2)N(C)C(=O)[C@H](CC(C)C)NC(=O)[C@H]([C@@H](C)O)NC(=O)[C@H](Cc2ccccc2)NC1=O [DP-331] ([NMeA]LIFTL[NMeF]FLD-Piperidide; lactam N-10) |  |  | 198 µL/min/mg | 0.24 ×10⁻⁶ cm/s |
| CC[C@H](C)[C@@H]1NC(=O)[C@H](Cc2ccccc2)NC(=O)[C@H](C)N(C)C(=O)C[C@@H](C(=O)N2CCCCC2)NC(=O)[C@H](CC(C)C)NC(=O)[C@H](Cc2ccccc2)NC(=O)[C@H](Cc2ccccc2)N(C)C(=O)[C@H](CC(C)C)NC(=O)[C@H]([C@@H](C)O)NC(=O)[C@H](CC(C)C)N(C)C1=O [DP-332] ([NMeA]FI[NMeL]TL[NMeF]FLD-Piperidide; lactam N-10) |  |  | 284 µL/min/mg | 14 ×10⁻⁶ cm/s |
| CC[C@H](C)[C@@H]1NC(=O)[C@H](CC(C)C)N(C)C(=O)[C@H](Cc2ccccc2)NC(=O)CCN(C)C(=O)C[C@@H](C(=O)N2CCCCC2)NC(=O)[C@H](CC(C)C)NC(=O)[C@H](Cc2ccccc2)NC(=O)[C@H](Cc2ccccc2)N(C)C(=O)[C@H](CC(C)C)NC(=O)[C@H]([C@@H](C)O)NC1=O [DP-334] ([NMeβAla]F[NMeL]ITL[NMeF]FLD-Piperidide; lactam N-10) |  |  | 80 µL/min/mg | 20 ×10⁻⁶ cm/s |
| CC(C)C[C@@H]1NC(=O)[C@H](Cc2ccccc2)N(C)C(=O)CNC(=O)[C@H](Cc2ccccc2)NC(=O)[C@H]([C@@H](C)O)NC(=O)[C@H](CC(C)C)N(C)C(=O)CCN(C)C(=O)C[C@@H](C(=O)N2CCCCC2)NC(=O)[C@H](COC(C)(C)C)NC(=O)[C@H](CC(C)C)N(C)C1=O [DP-335] ([NMeβAla][NMeL]TFG[NMeF]L[NMeL]S(tBu)D-Piperidide; lactam N-10) |  |  | 109 µL/min/mg | 22 ×10⁻⁶ cm/s |
| CC(C)C[C@H]1C(=O)N(C)[C@@H](Cc2ccccc2)C(=O)N[C@@H]([C@@H](C)O)C(=O)N(C)[C@@H](C)C(=O)N(C)[C@@H](Cc2ccccc2)C(=O)N(C)[C@@H](C)C(=O)N[C@H](C(=O)N2CCCCC2)CC(=O)N(C)CCC(=O)N(C)[C@@H](C(C)C)C(=O)N[C@@H](C)C(=O)N1C [DP-337] ([NMeβAla][NMeV]A[NMeL][NMeF]T[NMeA][NMeF][NMeA]D-Piperidide; lactam N-10) |  |  | 74 µL/min/mg | 17 ×10⁻⁶ cm/s |
| CC[C@H](C)[C@@H]1NC(=O)[C@H](Cc2ccccc2)NC(=O)[C@@H](C)N(C)C(=O)C[C@@H](C(=O)N2CCCCC2)NC(=O)[C@H](Cc2ccccc2)N(C)C(=O)[C@H](Cc2ccccc2)NC(=O)[C@H](CC(C)C)NC(=O)[C@H]([C@@H](C)O)NC(=O)[C@H](CC(C)C)NC(=O)[C@H](CC(C)C)N(C)C1=O [DP-338] ([dNMeA]FI[NMeL]LTLF[NMeF]D-Piperidide; lactam N-10) |  |  | 146 µL/min/mg | 4.9 ×10⁻⁶ cm/s |
